# Laboratory results as given in ChEMBL document CHEMBL1151623, “Flavonoids from Brickellia glutinosa” (J Nat Prod, 1984).
# Columns and labels:
# [1] = biological target: Aldo-keto reductase family 1 member B1 (Homo sapiens) (UniProt P15121); assay: Inhibition of aldose reductase at 0.1 uM
# [2] = biological target: Aldo-keto reductase family 1 member B1 (Homo sapiens) (UniProt P15121); assay: Inhibition of aldose reductase at 1 uM
SMILES,inhibition [1] [%],inhibition [2] [%]
COc1ccc(-c2oc3cc(O[C@@H]4O[C@H](CO)[C@@H](O)[C@H](O)[C@H]4O)c(OC)c(O)c3c(=O)c2OC)cc1O,47,0
O=C1NC(=O)c2cccc3cccc1c23,92,44
COc1cc2oc(-c3ccc(O)c(O)c3)c(OC)c(=O)c2c(O)c1O,97,71
C[C@@H]1O[C@@H](Oc2c(-c3ccc(O)c(O)c3)oc3cc(O)cc(O)c3c2=O)[C@H](O)[C@H](O)[C@H]1O,91,82
COc1c(-c2ccc(O)c(O)c2)oc2cc(O)cc(O)c2c1=O,95,78
COc1cc2oc(-c3ccc(O)cc3)c(OC)c(=O)c2c(O)c1OC,64,21
COc1cc2oc(-c3ccc(O)c(O)c3)c(OC)c(=O)c2c(O)c1OC,88,63
